Test results: paper PMC8597734 (Antimicrobial Agents and Chemotherapy, 2021)
≈ marks a conversion by molar mass, not a printed value. Read-outs that look alike come from different tables or passages of the source.

Tests used:
[1] = test system: nutrient-starved, nonreplicating M. abscessus Bamboo; experiment: MBC determination under nutrient-starved conditions; type: cell-based, Mycobacterium abscessus; conditions: 48 h drug exposure
Experimental: The determination of drug bactericidal activity against nutrient-starved M. abscessus cultures was performed as previously described ([52]). […] Washed culture was then diluted with PBS/Tyloxapol to OD600 = 0.2 (1.8 × 10^7 CFU/ml). […] Appropriate concentrations of drugs up to 100 μM were added to the tubes prior to incubation at 37°C on a tilted rack in an orbital shaker at 220 rpm.

[2] = test system: M. abscessus subsp. abscessus ATCC 19977; experiment: microbe, parasite or virus in culture; type: cell-based, Mycobacterium abscessus; conditions: Mycobacteroides abscessus
[3] = test system: M. abscessus subsp. massiliense M111; experiment: microbe, parasite or virus in culture; type: cell-based, Mycobacterium abscessus; conditions: Mycobacteroides abscessus, 72 h
[4] = test system: M. tuberculosis H37Rv ATCC 27294; experiment: microbe, parasite or virus in culture; type: cell-based; conditions: Mycobacterium tuberculosis, 168 h
M. abscessus Bamboo = experiment: microbe, parasite or virus in culture; type: cell-based, Mycobacterium abscessus; conditions: Mycobacteroides abscessus, 72 h
[5] = test system: M. abscessus Bamboo RM1 (GyrA M129K); experiment: microbe, parasite or virus in culture; type: cell-based, Mycobacterium abscessus
[6] = test system: M. abscessus subsp. abscessus M9; experiment: microbe, parasite or virus in culture; type: cell-based, Mycobacterium abscessus; conditions: Mycobacteroides abscessus, 72 h

SMILES: COc1cnc2ccc(=O)n(CCN3CCC(NCc4cnc(CO)c(Cl)c4)CC3)c2c1 [EC/11716]
- MBC [1]: >100 µM
- MBC ([1]; Mycobacteroides abscessus): > 100 µM
- MIC ([2]; ATCC19977): 1.9 µM (≈ 0.87 µg/mL)
- MIC ([2]; ATCC19977, 72 h): 1.8 µM (≈ 0.824 µg/mL)
- MIC [3]: 4.9 µM (≈ 2.24 µg/mL)
- MIC [4]: 0.38 µM (≈ 0.174 µg/mL)
- MIC (M. abscessus Bamboo): 2.5 µM (≈ 1.14 µg/mL)
- MIC [5]: >100 µM
- MIC ([5]; Mycobacteroides abscessus): > 100 µM
- MIC [6]: 2.9 µM (≈ 1.33 µg/mL)
